The data set relates to healthy-1 or PD-2 fibroblasts. Description: Baseline mitochondrial reactive oxygen species, MitoSox staining. Type of data set: cell-based, human. The settings on record: 10 μM for 30 hrs. How it is done:
FIG. 8. Related to FIG. 2-4. Miro1 Reducer in Human Cell and Fly Models. (A) Fibroblasts from Healthy-1 and PD-2 were treated, lysed, and blotted as indicated. Band intensities are normalized to those of GAPDH from the same blots and compared to “Healthy-1, no treatment”. n=4 independent experiments. (B) Fibroblasts from PD-2 were treated and immunostained as indicated. The intensity was quantified for each cell across 264-320 cells from 3 independent experiments, compared to “no treatment”. (C) Fibroblasts were treated, immunoprecipitated (IPed) with anti-Miro1, and blotted as indicated. Similar results were observed twice. (D) Similar as in (C), fibroblasts were treated as indicated, and IPed with anti-Miro1. The GTPase activity of the IPed Miro1 protein was measured as described in Method. […] The MitoSox intensity was quantified for each cell across 106-161 cells from 3 coverslips. […] The TMRM intensity was measured for each cell across 48-60 cells from 3 independent experiments, and expressed as a fraction of the mean of “Healthy-1, no treatment”. […] The movement (the intensity of non-yellow) was quantified for each cell as described in (Tsai et al., 2014) across 22-31 cells from 3 transfections. […] (1) Left: The percentage of TH-positive iPSC-derived neurons out of total cells (Dapi-positive) is calculated after immunocytochemistry under 20× as described in FIG. 3. […]

As to `O=C(Nc1ccc(Nc2cc(-n3ccnc3)ncn2)cc1)Nc1cccc(F)c1` [Miro1 Reducer], the “baseline mitochondrial reactive oxygen species levels (MitoSox)” value is on record as “did not affect”.

Values taken from US12544375B2, “Small molecule therapeutic for parkinson's disease paired with a biomarker of therapeutic activity” (The Board of Trustees of the Leland Stanford Junior …, priority 2019, dated 2026).
